The record followed here is patent publication US4895956A, “3-aroyl-6,7-dihydro-5H-pyrrolo(1,2-c)imidazole-7-carboxylic acid derivatives” (Hisamitsu Pharmaceutical Co., Ltd., priority 1987, dated 1990).

Data set [1] concerns gastric mucous. The experiment in a line: Gastric mucous damage test in rats. Type of data set: in vivo, rat (male rats of Wistar strain). The conditions noted are these: oral, rats fasted 18 hours. As to the method: Gastric mucous damage test in rats
Using male rats of Wistar strain each weighing approximately 160 g, compounds of the present invention were orally administered to the rats previously fasting for 18 hours. Three point five hours later, 1 ml/rat of a 5% Pontamin Sky Blue solution was intravenously injected to the rats. Rats were dissected to remove the stomachs therefrom. A 10 ml of 70% ethanol was injected into the stomachs to fix them, and the stomachs were cut and washed with a 10% hydrogen peroxide/ethanol mixed liquid and then visually observed to fine whether ulcers were formed therein.

Data set [2] in a line: Acute toxicity test in mice. The conditions noted are these: in vivo; male mouse, oral, 14 days observation. The source says: (§1) Acute toxicity test in rats and mice
(§2) Each group consisting 8 animals such as male Wistar rats weighing about 120 g and male ddY mice weighing about 25 g was used. Compounds of the present invention were orally administered to the animals. General symptoms, changes in body weight and lethality of the test animals had been observed over a period of time for 14 days after the oral administration.

Data set [3] has as its system carrageenin-induced paw edema. The experiment in a line: Inhibitory actions on carrageenin-induced paw edema. Type of data set: in vivo, rat (male rats of Wistar strain). The settings on record: 50 mg/kg, oral, 60 min before 1% λ-carrageenin; 3 hours after induction; vs control group. As to the method: Inhibitory actions on carrageenin-induced paw edema
Using male rats of Wistar strain each weighing approximately 150 g, 0.1 ml of 1% λ-carrageenin was subcutaneously injected into the paw of each rat to induce the reaction. Since then, the volume of paw edema was measured in time course. Each compound of the present invention was orally administered to the rats 60 minutes before the induction of the reaction. As shown in the following Table, the results were expressed in terms of inhibitory percentage in comparison with those in control group at 3 hours after the induction of the reaction.

The nature of data set [4]: Acute toxicity test in rats. The conditions noted are these: in vivo; male rat, oral, 14 days observation.
Excerpt: as §1, §2

For data set [5], the system named is writhing induced by acetic acid. Briefly: Inhibitory actions on the writhing induced by acetic acid in mice. Type of data set: in vivo, mouse (male ddY strain mice). The conditions noted are these: 50 mg/kg, oral, 30 min before 0.6% acetic acid; writhing counted for 10 min, 5 min after acetic acid; vs control group. As to the method:
Inhibitory actions on the writhing induced by acetic acid in mice
Male ddY strain mice weighing 20-24 g were used a group consisting 7-9 animals. Each compound was orally administered to mice. Thirty minutes later, 0.6% acetic acid was abdominally administered at a dose of 0.1 ml/10 g. The number of writhing was counted 5 minutes after the administration of the acetic acid for 10 minutes. The inhibitory percentage were determined by comparing the number of writhing to the control group.

As for `COc1ccc2c(c1)c(CC(=O)O)c(C)n2C(=O)c1ccc(Cl)cc1` [Indomethacine, reference compound], the Ulcer formation in data set [1] (10 mg/kg) is 6/6.

For `CC(C)c1ccc(C(=O)c2ncc3n2CCC3C(=O)O)cc1` (stereo not drawn) [Compound of Example 24], the LD50 at 336 h is over 3000 mg/kg in data set [2] and over 5000 mg/kg in data set [4]. The “Inhibition (inhibitory percentage of paw edema)” value in data set [3] is 51.6%. The Ulcer formation in data set [1] (100 mg/kg) is recorded as 0/6. Also, the “Inhibition (inhibitory percentage of writhing)” value in data set [5] is reported as 79.3%.

Take `O=C(c1ccccc1)c1nc(Br)c2n1CCC2C(=O)O` (stereo not drawn) [Compound of Example 5, 3-benzoyl-1-bromo-6,7-dihydro-5H-pyrrolo[1,2-c]imidazole-7-carboxylic acid]: the LD50 at 336 h in data set [2] is over 3000 mg/kg; in data set [4], over 5000 mg/kg. In data set [3], the “Inhibition (inhibitory percentage of paw edema)” value is 48.4%. In addition, the Ulcer formation in data set [1] (100 mg/kg) is reported as 0/6. For the same compound, the “Inhibition (inhibitory percentage of writhing)” value in data set [5] came out at 87.5%.

As for `O=C(c1ccc(Cl)cc1)c1nc(Br)c2n1CCC2C(=O)O` (stereo not drawn) [Compound of Example 16], the LD50 at 336 h in data set [2] is over 3000 mg/kg; in data set [4] it was over 5000 mg/kg. In addition, the “Inhibition (inhibitory percentage of paw edema)” value in data set [3] came to 50.7%. Besides, the Ulcer formation in data set [1] (100 mg/kg) is reported as 0/6. In data set [5], the “Inhibition (inhibitory percentage of writhing)” value was 84.5%.

Turning to `CC(=O)Oc1ccccc1C(=O)O` [Aspirin, reference compound], in data set [1] (100 mg/kg), the Ulcer formation is on record as 6/6.

`O=C(c1ccccc1Cl)c1nc(Br)c2n1CCC2C(=O)O` (stereo not drawn) [Compound of Example 9]: the LD50 at 336 h in data set [2] was over 3000 mg/kg; in data set [4] it was over 5000 mg/kg. The “Inhibition (inhibitory percentage of paw edema)” value in data set [3] was 50.1%. The Ulcer formation in data set [1] (100 mg/kg) is on record as 0/6. Moreover, the “Inhibition (inhibitory percentage of writhing)” value in data set [5] stood at 83.3%.

In the case of `COc1ccc(C(=O)c2ncc3n2CCC3C(=O)O)cc1` (stereo not drawn) [Compound of Example 15], the LD50 at 336 h was over 3000 mg/kg in data set [2] and over 5000 mg/kg in data set [4]. In addition, the “Inhibition (inhibitory percentage of paw edema)” value in data set [3] worked out at 53.9%. For the same compound, the Ulcer formation in data set [1] (100 mg/kg) is reported as 0/6. Also, in data set [5], the “Inhibition (inhibitory percentage of writhing)” value is reported as 86.3%.
